Assay results published in patent publication US10351587B2, “Method of making and using 7α, 11β-dimethyl-17β-hydroxyestr-4-en-3-one 17-undecanoate” (The United States of America, as represented by the …, priority 2000, dated 2019).
Where “and” joins values, the source holds several entries; their conditions need not be identical. Equal values may be shown once. Entries after “also recorded” stand apart in the source; their conditions may differ.

How the values were obtained:
[1] = system: castrate Sprague-Dawley rats; experiment: Hershberger test, subcutaneous administration for seven days (ventral prostate weight); format: in vivo; conditions: for Androgenic Potency of Corresponding Alcohol: ventral prostate weight assay following subcutaneous administration, alcohol of G = 1.0 (assigned), value is for the free alcohol of the listed ester; for Androgenic activity Potency Ratio, subcutaneous: subcutaneous daily for 7 days in 10% EtOH/sesame oil, testosterone subcutaneous standard = 1.0 (assigned), ventral prostate weight
Protocol: (§1) Immature (about 21-day-old) Sprague-Dawley rats were orchidectomized under anesthesia, and randomly assignee to groups of ten animals for each dose level of the active undergoing testing. Each active was dissolved in 10% ethanol/sesame oil and administered by gavage (oral) or subcutaneous injection each day for seven days beginning on the date of the orchidectomy. The animals were sacrificed 24 hours after the last dose, and the ventral prostate and seminal vesicles were excised, cleaned of fat and connective tissue, blotted on moist filter paper and weighed to the nearest 0.1 mg. Regression analysis was performed by conventional methods using a PROPHET data management system. Ventral prostate weight was used as the endpoint because it is the sensitive organ to androgenic stimulation.
as §1, with “by” for “by gavage (oral) or”, “mg. See, e.g., Hershberger, L. et al, Myotrophic Activity of 19-nortestosterone And Other Steroids Determined By Modified Levator And Muscle Method, Proc. Soc. Exptl. Biol. Med. 83 175-180 (1953).” for “mg.”, “system. See, e.g., Bliss, C., The Statistics of Bioassay (Academic Press, New York, 1952); Hollister, C., Nucleic Acids Res. 16 1873-75 (1988).” for “system.”

[2] = system: castrate Sprague-Dawley rats; experiment: Hershberger test, oral administration for seven days (ventral prostate weight); format: in vivo
Protocol: as §1, with “(oral)” for “(oral) or subcutaneous injection”, “mg. See, e.g., Hershberger, L. et al, Myotrophic Activity of 19-nortestosterone And Other Steroids Determined By Modified Levator And Muscle Method, Proc. Soc. Exptl. Biol. Med. 83 175-180 (1953).” for “mg.”, “See, e.g., Bliss, C., The Statistics of Bioassay (Academic Press, New York, 1952); Hollister, C., Nucleic Acids Res. 16 1873-75 (1988). […]” for “Ventral prostate weight was used as the endpoint because it is the sensitive organ to androgenic stimulation.”
Immature (about 21-day-old) Sprague-Dawley rats were orchidectomized under anesthesia, and randomly assignee to groups of ten animals for each dose level of the active undergoing testing. […] See, e.g., Hershberger, L. et al, Myotrophic Activity of 19-nortestosterone And Other Steroids Determined By Modified Levator And Muscle Method, Proc. Soc. […]

[3] = system: castrate Sprague-Dawley rats; experiment: Duration of activity after a single subcutaneous injection (ventral prostate weight over weeks, AUC); format: in vivo; conditions: for Long-term androgenic activity (ventral prostate weight over time), in words / AUC of ventral prostate weight (FIG. 15) / AUC of ventral prostate weight (FIG. 5): single subcutaneous injection; for AUC of ventral prostate weight (FIG. 5): n=5
Protocol: as §1, with “was” for “was dissolved in 10% ethanol/sesame oil and”, “by” for “by gavage (oral) or”
Except for testosterone enanthate, each active was formulated in two different carriers: (1) an aqueous suspension and (2) in sesame oil. Testosterone enanthate was formulated using the sesame oil carrier only, because it exists as a liquid at room temperature and could not therefore be formulated as an aqueous suspension.
(§2) The carrier used to provide the aqueous suspension was formulated as follows: 1 g benzyl alcohol, 0.5 g sodium carboxylethyl cellulose 50, 0.376 g disodium hydrogen phosphate dihydrate, 1.495 g sodium dihydrogen phosphate dihydrate, with water for injection (WFI) being added to bring volume of the carrier up to 100 ml.
Each formulation was prepared at a concentration of 0.6 mg/0.2 ml.
(§3) Immature (about 21-day-old) Sprague-Dawley rats were orchidectomized under anesthesia, and randomly assignee to groups of 40 or more. Animals received a single subcutaneous injection of 0.6 mg of each ester in 0.2 ml of an aqueous suspending carrier and/or oily carrier (10% ethanol/90% sesame oil or ethyl oleate) on the date of the orchidectomy. In cases where the ester was not solid at room temperature, 10% ethanol/sesame oil or ethyl oleate was used as the carrier. In this example, the carrier used to provide the aqueous suspension was formulated as follows: 1 g benzyl alcohol, 0.5 g sodium carboxylethyl cellulose 50, 0.376 g disodium hydrogen phosphate dihydrate, 1.495 g sodium dihydrogen phosphate dihydrate, with water for injection (WFI) being added to bring volume of the carrier up to 100 ml.
Five animals from each group were sacrificed at weekly or biweekly intervals, and the ventral prostate and seminal vesicles were excised, cleaned of fat and connective tissue, blotted on moist filter paper and weighed to the nearest 0.1 mg.
Ventral prostate weight was used as the endpoint because it is the sensitive organ to androgenic stimulation. Regression analysis was performed by conventional methods using the PROPHET data management system previously identified.
Immature (about 21-day-old) Sprague-Dawley rats were orchidectomized under anesthesia, and randomly assignee to groups of 40 or more. Animals received a single subcutaneous injection of 0.6 mg of the undecanoate in 0.2 ml of an aqueous suspending carrier and/or oily carrier (10% ethanol/90% sesame oil containing 5 mg/ml chlorobutanol as a preservative, or ethyloleate) on the date of the orchidectomy. The enanthate ester was formulated using the 10% ethanol/sesame oil or ethyloleate carrier as a first standard, with the 10% ethanol/sesame oil carrier used as a second standard.
as §2, with “In this example, the” for “The”

[4] = Serum levels of the free alcohol after a single subcutaneous injection; format: in vivo, Sprague-Dawley rats; conditions: single subcutaneous injection 0.6 mg in aqueous carrier, 10-week observation period
Protocol: as §3

[5] = 0.6 mg, ASV (aqueous suspending vehicle)

With `CCCC[C@H]1CC[C@H](C(=O)O[C@H]2CC=C3[C@@H]4[C@H](C)CC5=CC(=O)CC[C@]5(C)[C@H]4CC[C@@]32C)CC1` [C, 7α-Methyl-14-dehydro-testosterone-17β-bucyclate] the “Androgenic Potency of Corresponding Alcohol” value (shortened to “Androgenic Potency”) [1] was 61.1.

For `CCCCCCCCCCC(=O)O[C@H]1CC[C@H]2[C@H]3[C@H]([C@@H](C)C[C@]12C)[C@H]1CCC(=O)C=C1C[C@H]3C` [7α,11β-dimethyl-17β-hydroxyestr-4-en-3-one 17-undecanoate], the “Androgenic activity Potency Ratio, oral” value ([2]; oral gavage daily for 7 days in 10% EtOH/sesame oil, methyltestosterone oral standard = 1.0 (assigned), ventral prostate weight) was “about twice that of methyltestosterone”.

With `CCCC[C@H]1CC[C@H](C(=O)O[C@H]2CC=C3[C@H]4[C@H](CC[C@@]32C)[C@H]2CCC(=O)C=C2C[C@H]4C)CC1` [CDB-4327A, 7α-Methyl-14-dehydro-19-nortestosterone-17β-bucyclate] the “Long-term androgenic activity (ventral prostate weight over time), in words” value [3] was “surprising stimulation of ventral prostate size over the entire 20-week observation period”.

For `CCCC[C@H]1CC[C@H](C(=O)O[C@H]2CC[C@H]3[C@H]4[C@H](CC[C@]23C)[C@H]2CCC(=O)C=C2C[C@H]4C)CC1` [A, 7α-Methyl-19-nortestosterone-17β-bucyclate], the “Androgenic Potency” value [1] was 8.1^3.

With `CCCCCCCCCCC(=O)O[C@H]1CC[C@H]2[C@H]3[C@H]([C@@H](C)C[C@]12C)[C@H]1CCC(=O)C=C1C[C@H]3C` [CDB-4521A, 7α,11β-dimethyl-17β-hydroxyestr-4-en-3-one 17-undecanoate] the “Androgenic activity Potency Ratio, subcutaneous” value [1] was 0.52, the “Androgenic activity Potency Ratio, oral, aqueous suspending vehicle” value ([2]; oral gavage daily for 7 days in aqueous suspending vehicle (ASV), methyltestosterone in same vehicle = 1.0 (assigned)) was 0.95 and the “Long-term androgenic activity (ventral prostate weight over time), in words” value [3] was “most dramatic increase and maintenance of ventral prostate weight”. The “AUC of ventral prostate weight relative to testosterone enanthate in sesame oil” value ([3]; single subcutaneous injection 0.6 mg, active in aqueous vehicle, 10 week period) was “about 3 times”, the “AUC of ventral prostate weight (FIG. 15)” value ([3]; 0.6 mg, 10% EtOH/Sesame Oil, 10 week period) was 620 mg-weeks and the “AUC of ventral prostate weight (FIG. 15)” value ([3]; 0.6 mg, Aqueous Suspending Vehicle, 10 week period) was 1817 mg-weeks.

In the case of `C[C@@H]1CC2=CC(=O)CC[C@@H]2[C@@H]2[C@@H]1[C@@H]1CC[C@H](O)[C@@]1(C)C[C@@H]2C` [CDB-1321D, 7α,11β-Dimethyl-17β-hydroxy-4-estren-3-one], the “AUC of ventral prostate weight (FIG. 5)” value [3, 5] is reported as 460 and the “AUC of ventral prostate weight (FIG. 5)” value ([3]; 0.6 mg, S.O. (sesame oil)) is reported as 166.

For `CCCCCCC(=O)O[C@H]1CC[C@H]2[C@@H]3CCC4=CC(=O)CC[C@]4(C)[C@H]3CC[C@]12C` [CDB-112E, testosterone enanthate], the “AUC of ventral prostate weight (FIG. 15)” value ([3]; 0.6 mg, 10% EtOH/Sesame Oil, 10 week period, listed as CDB-112F) was 559 mg-weeks and 559.28 mg-weeks and the “AUC of ventral prostate weight (FIG. 5)” value ([3]; 0.6 mg, S.O. (sesame oil)) was 497.

For `CCCC[C@H]1CC[C@H](C(=O)O[C@H]2CC[C@H]3[C@H]4[C@H]([C@@H](C)C[C@]23C)[C@H]2CCC(=O)C=C2C[C@H]4C)CC1` (relative stereo) [CDB-4386A, 7α,11β-Dimethyl-17β-hydroxy-4-estren-3-one 17β-trans-4-n-butylcyclohexane carboxylate], the “Androgenic Potency” value [1] was 19.3, the “Serum levels of the free alcohol (7α,11β-dimethyl-19-nortestosterone)” value [4] was “highest levels of the free alcohol” and the “Long-term androgenic activity (ventral prostate weight over time), in words” value [3] was “most dramatic increase and maintenance of ventral prostate weight; also recorded: greatest AUC over the 10-week period”. For the same compound, the “AUC of ventral prostate weight (FIG. 5)” value [3, 5] was 1390 and the “AUC of ventral prostate weight (FIG. 5)” value ([3]; 0.6 mg, S.O. (sesame oil)) was 157.

With `CCCC[C@H]1CC[C@H](C(=O)O[C@H]2CC[C@H]3[C@H]4[C@H](CC[C@]23C)[C@H]2CCC(=O)C[C@@H]2C[C@H]4C)CC1` [B, 7α-Methyl-5α-dihydro-19-nortestosterone-17β-bucyclate] the “Androgenic Potency” value [1] was 1.2.

In the case of `C[C@]12CC[C@H]3[C@@H](CCC4=CC(=O)CC[C@@]43C)[C@@H]1CC[C@@H]2O` [CDB-111C, testosterone], the “Androgenic activity Potency Ratio, subcutaneous” value [1] is reported as 1.00.

For `CCCCC1CCC(C(=O)OC2CCCC3C4C(C)CC5=CC(=O)CCC5(C)C4CCC23C)CC1` [D, 7α-Methyl-D-homo-testosterone-17β-bucyclate], the “Androgenic Potency” value [1] was 36.4-61.7^3.

In the case of `CCCCC1CCC(C(=O)O[C@H]2CC[C@H]3[C@@H]4CCC5=CC(=O)CC[C@]5(C)[C@H]4CC[C@]23C)CC1` (stereo partly drawn) [CDB-1781a, Testosterone bucyclate], the “Androgenic Potency” value [1] is reported as 1.0 (assigned), the “Long-term androgenic activity (ventral prostate weight over time), in words” value [3] is reported as “significantly less” and the “AUC of ventral prostate weight (FIG. 5)” value ([3]; 0.6 mg, S.O. (sesame oil)) is reported as 186. The “AUC of ventral prostate weight (FIG. 5)” value ([3]; 1.0 mg, ASV (aqueous suspending vehicle)) was 683.

In the case of `CCCCC1CCC(C(=O)O[C@H]2CC[C@H]3[C@H]4[C@H]([C@H](C)C[C@]23C)[C@H]2CCC(=O)C=C2C[C@H]4C)CC1` (stereo partly drawn) [CDB-4386], the “Long-term androgenic activity (ventral prostate weight over time), in words” value [3] is reported as “inactive; also recorded: relatively low activity”.
